Results reported in patent publication US20240082406A1, “BENZOHETEROCYCLE SUBSTITUTED TETRAHYDROISOQUINOLINE COMPOUND” (SHANGHAI JEMINCARE PHARMACEUTICAL CO., LTD, priority 2020, published 2024).
Counter-ions that a name gives are not always drawn.

Key:
NHE3 [1] = molecular target: T1, NHE3 (UniProt P48764); experiment: Cell-based NHE3 activity under transient conditions (BCECF-AM intracellular pH, FLIPR); design: species or system Rat or Human; details: opossum kidney cells expressing NHE3, read-out: Cell-based NHE3 inhibition IC50 (uM) under transient conditions
T1 sequence (P48764 1-834): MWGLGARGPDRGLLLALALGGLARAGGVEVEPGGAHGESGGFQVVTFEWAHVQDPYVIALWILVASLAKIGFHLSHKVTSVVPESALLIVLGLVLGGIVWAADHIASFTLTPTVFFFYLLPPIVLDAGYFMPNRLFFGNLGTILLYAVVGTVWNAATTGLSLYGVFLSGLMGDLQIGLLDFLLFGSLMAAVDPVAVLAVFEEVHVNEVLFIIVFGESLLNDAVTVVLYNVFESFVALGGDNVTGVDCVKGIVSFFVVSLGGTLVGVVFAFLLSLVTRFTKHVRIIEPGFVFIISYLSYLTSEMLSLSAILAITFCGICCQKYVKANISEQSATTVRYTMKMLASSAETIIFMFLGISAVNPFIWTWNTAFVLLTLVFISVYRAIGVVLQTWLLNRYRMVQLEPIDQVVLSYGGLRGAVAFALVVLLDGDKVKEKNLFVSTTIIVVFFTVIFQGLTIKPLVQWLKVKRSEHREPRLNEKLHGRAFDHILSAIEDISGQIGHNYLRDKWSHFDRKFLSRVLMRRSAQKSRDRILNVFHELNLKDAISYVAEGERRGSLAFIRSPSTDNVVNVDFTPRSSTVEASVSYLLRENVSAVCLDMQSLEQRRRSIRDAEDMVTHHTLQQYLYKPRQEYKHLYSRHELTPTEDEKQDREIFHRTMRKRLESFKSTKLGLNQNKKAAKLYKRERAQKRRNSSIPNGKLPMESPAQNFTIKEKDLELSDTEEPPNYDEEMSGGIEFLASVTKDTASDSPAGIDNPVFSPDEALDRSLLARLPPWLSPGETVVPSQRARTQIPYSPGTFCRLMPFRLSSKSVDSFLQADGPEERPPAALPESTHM
Excerpt: (§1) Opossum kidney (OK) cells were obtained from ATCC and cultured and expanded according to its instructions. OK monoclonal stable cell lines expressing the Rat NHE3 (Gene Bank registration number: M85300) protein and OK monoclonal stable cell lines expressing the Human NHE3 (Gene Bank registration number: NM_004174.1) protein were constructed by lentivirus infection.
The general procedure of the cell-based NHE3 activity experiments under transient conditions (transient inhibition) was based on an adaptation method of the pH-sensitive dye method originally reported by Tisen (Proc. Natl. Acad. Sci. USA) (1984) 81(23):7436-7440) to measure rat NHE3-mediated Na+-dependent reverse H+ transport, and was optimized according to the instructions “Measuring Intracellular pH With the FLIPR and FLIPR 384 Fluorometric Imaging Plate Reader Systems” published by Molecular Devices. The specific method was: Rat NHE3 OK monoclonal cells or Human NHE3 OK monoclonal cells were inoculated into 384-well plates and grew overnight. The medium was aspirated from the wells and the cells were washed twice with FLIPR buffer (Hank's BSS 1×, 20 mM HEPES, 1% BSA) followed by incubation with FLIPR buffer (Hank's BSS 1×, 20 mM HEPES, 1% BSA) containing […] BCECF-AM (Invitrogen) for 45 min at room temperature. Subsequently, […] of 200 mM NH4Cl-HEPES buffer (Hank's BSS 1×, 20 mM HEPES, 200 mM NH4Cl) was added and the cells were incubated for 15-20 minutes at room temperature. Cells were washed twice with 20 mM NH4Cl-HEPES buffer (Hank's BSS 1×, 20 mM HEPES, 20 mM NH4Cl). NHE3-mediated pH sensitization in cells was normalized by addition of containing 0.4 mM amiloride (EIPA) and […] test compound or Na-HEPES buffer (100 mM NaCl, 50 mM HEPES, 10 mM glucose, 5 mM KCl, 2 mM CaCl2), 1 mM MgCl2, pH 7.4) and monitoring of BCECF-AM fluorescence at λem 535 nm excitated by λex 440 nm and λex 490 nm respectively. Ratio=fluorescence value (λex 490 nm)/fluorescence value (λex 440 nm) was set, the average value of the Ratio difference between the end time and the start time between the duplicate wells was calculated, the average value and the concentration value of the compound were drawn, and Graphpad Prism software was used to estimate IC50 value.

NHE3 [2] = molecular target: T1, NHE3; experiment: Cell-based NHE3 activity under persistent conditions (60 min pre-incubation, compound removed); design: species or system Rat or Human; details: opossum kidney cells expressing NHE3, read-out: Cell-based NHE3 inhibition IC50 (uM) under persistent conditions
Excerpt: as §1
The general procedure of the cell-based NHE3 activity assay under persistent conditions (persistent inhibition) was: Rat NHE3 OK monoclonal cells or Human NHE3 OK monoclonal cells were inoculated into 384-well plates and grew overnight. The medium was aspirated from the wells and the cells were washed twice with FLIPR buffer (Hank's BSS 1×, 20 mM HEPES, 1% BSA) followed by the addition of Na-HEPES buffer containing […] test compound (100 mM NaCl, 50 mM HEPES, 10 mM glucose, 5 mM KCl, 2 mM CaCl2, 1 mM MgCl2, pH 7.4) and incubated for 60 minutes at room temperature. The compounds were aspirated from the wells and incubated with FLIPR buffer (Hank's BSS 1×, 20 mM HEPES, 1% BSA) containing […] BCECF-AM (Invitrogen) for 45 minutes at room temperature. Subsequently, […] of 200 mM NH4Cl-HEPES buffer (Hank's BSS 1×, 20 mM HEPES, 200 mM NH4Cl) was added and incubated for 15-20 minutes at room temperature. The cells were washed twice with 20 mM NH4Cl-HEPES buffer (Hank's BSS 1×, 20 mM HEPES, 20 mM […]). […] Ratio=fluorescence value (λex 490 nm)/fluorescence value (λex 440 nm) was set, the average value of the Ratio difference between the end time and the start time between the duplicate wells was calculated, the average value and the concentration value of the compound were drawn, and the dose-response-inhibition (four parameters) equation was used to estimate EC50 value by GraphpadPrism.

Structure (SMILES)	IC50 (NHE3 [1]; embodiment compounds)	IC50 (NHE3 [2])	IC50 (NHE3 [1]; intermediates)
CN1Cc2c(Cl)cc(Cl)cc2C(c2ccc3c(c2)S(=O)(=O)N(CCOCCOCCNC(=O)NCCCCNC(=O)NCCOCCOCCN2Cc4ccc(C5CN(C)Cc6c(Cl)cc(Cl)cc65)cc4S2(=O)=O)C3)C1 (stereo not shown) [Embodiment A1]	0.43 µM	0.5 µM	
CN1Cc2c(Cl)cc(Cl)cc2C(c2cccc3c2CN(CCOCCOCCNC(=O)NCCCCNC(=O)NCCOCCOCCN2Cc4c(C5CN(C)Cc6c(Cl)cc(Cl)cc65)cccc4S2(=O)=O)S3(=O)=O)C1 (stereo not shown) [Embodiment A2]	3.14 µM		
CN1Cc2c(Cl)cc(Cl)cc2C(c2ccc3c(c2)C(=O)N(CCOCCOCCNC(=O)NCCCCNC(=O)NCCOCCOCCN2Cc4ccc(C5CN(C)Cc6c(Cl)cc(Cl)cc65)cc4C2=O)C3)C1 (stereo not shown) [Embodiment B1]	0.52 µM	0.02 µM	
CN1Cc2c(Cl)cc(Cl)cc2C(c2cccc3c2CN(CCOCCOCCNC(=O)NCCCCNC(=O)NCCOCCOCCN2Cc4c(cccc4C4CN(C)Cc5c(Cl)cc(Cl)cc54)C2=O)C3=O)C1 (stereo not shown) [Embodiment B2]	2.05 µM		
CN1Cc2c(Cl)cc(Cl)cc2C(c2ccc3c(c2)C(=O)N(CCOCCOCCNC(=O)NCCCCNC(=O)NCCOCCOCCN2CCc4ccc(C5CN(C)Cc6c(Cl)cc(Cl)cc65)cc4C2=O)CC3)C1 (stereo not shown) [Embodiment B3]	0.77 µM	0.41 µM	
CN1Cc2c(Cl)cc(Cl)cc2C(c2ccc3c(c2)CN(CCOCCOCCNC(=O)NCCCCNC(=O)NCCOCCOCCN2Cc4cc(C5CN(C)Cc6c(Cl)cc(Cl)cc65)ccc4C2=O)C3=O)C1 (stereo not shown) [Embodiment B4]	0.93 µM	0.45 µM	
CN1Cc2c(Cl)cc(Cl)cc2C(c2ccc3ccn(CCOCCOCCNC(=O)NCCCCNC(=O)NCCOCCOCCn4ccc5ccc(C6CN(C)Cc7c(Cl)cc(Cl)cc76)cc5c4=O)c(=O)c3c2)C1 (stereo not shown) [Embodiment B5]	0.23 µM	0.57 µM	
CN1Cc2c(Cl)cc(Cl)cc2C(c2ccc3c(c2)C(=O)N(CCOCCOCCOCCNC(=O)NCCCCNC(=O)NCCOCCOCCCN2Cc4ccc(C5CCCc6ccc(Cl)cc65)cc4C2=O)C3)C1 (stereo not shown) [Embodiment B6]	1.05 µM	0.04 µM	
CN1Cc2c(Cl)cc(Cl)cc2C(c2ccc3c(c2)S(=O)(=O)N(CCOCCOCCNC(=O)NCCCCNC(=O)NCCOCCOCCN2CCc4ccc(C5CN(C)Cc6c(Cl)cc(Cl)cc65)cc4S2(=O)=O)CC3)C1 (stereo not shown) [Embodiment C1]	0.22 µM	0.59 µM	
CN1Cc2c(Cl)cc(Cl)cc2C(c2ccc3cn(CCOCCOCCNC(=O)NCCCCNC(=O)NCCOCCOCCn4cc5ccc(C6CN(C)Cc7c(Cl)cc(Cl)cc76)cc5n4)nc3c2)C1 (stereo not shown) [Embodiment D1-P1]	0.28 µM	0.02 µM	
CN1Cc2c(Cl)cc(Cl)cc2C(c2ccc3cnn(CCOCCOCCNC(=O)NCCCCNC(=O)NCCOCCOCCn4ncc5ccc(C6CN(C)Cc7c(Cl)cc(Cl)cc76)cc54)c3c2)C1 (stereo not shown) [Embodiment D1-P2]	2.33 µM	3.61 µM	
CN1Cc2c(Cl)cc(Cl)cc2C(c2ccc3cnn(CCOCCOCCOCCNC(=O)NCCCCNC(=O)NCCOCCOCCOCCn4ncc5ccc(C6CN(C)Cc7c(Cl)cc(Cl)cc76)cc54)c3c2)C1 (stereo not shown) [Embodiment D2-P2 hydrochloride salt]	0.27 µM	0.12 µM	
CN1Cc2c(Cl)cc(Cl)cc2C(c2ccc3c(c2)S(=O)(=O)N(CCOCCOCCNC(=O)NCCCCNC(=O)NCCOCCOCCN2C=Cc4ccc(C5CN(C)Cc6c(Cl)cc(Cl)cc65)cc4S2(=O)=O)C=C3)C1 (stereo not shown) [Embodiment E1]	0.06 µM	0.05 µM	
CN1Cc2c(Cl)cc(Cl)cc2C(c2ccc3c(c2)C(=O)N(CCOCCOCCNC(=O)CN(CCN(CC(=O)O)CC(=O)NCCOCCOCCN2Cc4ccc(C5CN(C)Cc6c(Cl)cc(Cl)cc65)cc4C2=O)CC(=O)O)C3)C1 (stereo not shown) [Embodiment F1]	0.91 µM	0.64 µM	
CN1Cc2c(Cl)cc(Cl)cc2C(c2ccc3c(c2)C(=O)N(CCOCCOCCOCCNC(=O)CN(CCN(CC(=O)O)CC(=O)NCCOCCOCCOCCN2Cc4ccc(C5CN(C)Cc6c(Cl)cc(Cl)cc65)cc4C2=O)CC(=O)O)C3)C1 (stereo not shown) [Embodiment F2]	0.62 µM	0.08 µM	
CN1Cc2c(Cl)cc(Cl)cc2C(c2ccc3c(c2)C(=O)N(CCOCCOCCNC(=O)O[C@@H]2COC4C2OC[C@H]4OC(=O)NCCOCCOCCN2Cc4ccc(C5CN(C)Cc6c(Cl)cc(Cl)cc65)cc4C2=O)C3)C1 (stereo partly shown) [Embodiment G1]	0.93 µM	0.1 µM	
CN1Cc2c(Cl)cc(Cl)cc2C(c2ccc3c(c2)C(=O)N(CCOCCOCCNC(=O)NC2CCC(NC(=O)NCCOCCOCCN4Cc5ccc(C6CN(C)Cc7c(Cl)cc(Cl)cc76)cc5C4=O)CC2)C3)C1 (stereo not shown) [Embodiment H1]	0.91 µM	0.04 µM	
CN1Cc2c(Cl)cc(Cl)cc2C(c2ccc3c(c2)C(=O)N(CCOCCOCCNC(=O)Nc2ccc(NC(=O)NCCOCCOCCN4Cc5ccc(C6CN(C)Cc7c(Cl)cc(Cl)cc76)cc5C4=O)cc2)C3)C1 (stereo not shown) [Embodiment H2]	0.48 µM	0.06 µM	

The next lines start with the values.

IC50 (NHE3 [1]; embodiment compounds)	IC50 (NHE3 [2])	IC50 (NHE3 [1]; intermediates)	Structure (SMILES)
		0.6 µM	CN1Cc2c(Cl)cc(Cl)cc2C(c2ccc3c(c2)S(=O)(=O)NC3)C1 (stereo not shown) [Intermediate A1-13]
		1.63 µM	CN1Cc2c(Cl)cc(Cl)cc2C(c2cccc3c2CNS3(=O)=O)C1 (stereo not shown) [Intermediate A2-13]
		0.53 µM	CN1Cc2c(Cl)cc(Cl)cc2C(c2ccc3c(c2)C(=O)NC3)C1 (stereo not shown) [Intermediate B1-6]
		0.17 µM	CN1Cc2c(Cl)cc(Cl)cc2C(c2cccc3c2CNC3=O)C1 (stereo not shown) [Intermediate B2-6]
		0.79 µM	CN1Cc2c(Cl)cc(Cl)cc2C(c2ccc3c(c2)CNC3=O)C1 (stereo not shown) [Intermediate B4-6]
		1.69 µM	CN1Cc2c(Cl)cc(Cl)cc2C(c2ccc3cc[nH]c(=O)c3c2)C1 (stereo not shown) [Intermediate B5-6]
		1.24 µM	CN1Cc2c(Cl)cc(Cl)cc2C(c2ccc3c(c2)S(=O)(=O)NCC3)C1 (stereo not shown) [Intermediate C1-11]
		1.44 µM	CN1Cc2c(Cl)cc(Cl)cc2C(c2ccc3cn[nH]c3c2)C1 (stereo not shown) [Intermediate D1-7]
		3.17 µM	CN1Cc2c(Cl)cc(Cl)cc2C(c2ccc3c(c2)S(=O)(=O)NC=C3)C1 (stereo not shown) [Intermediate E1-9]
